2 compounds from patent publication US10004816B2, “X-ray imaging contrast media with low iodine concentration and X-ray imaging process” (GE HEALTHCARE AS, priority 2012, dated 2018) can be followed below.

Data set [1] can be described thus: Average cluster size in solution. Type of data set: physicochemical. An excerpt:
By intermolecular interactions the contrast media molecules form clusters that are continuously formed and broken up and the average cluster size may be described by a formation/destruction equilibrium. Ioforminol has an increased tendency to form clusters and in water at high concentration an average size of 4 molecules per cluster is predominating, whereas Iodixanol under similar conditions have a mean cluster size of 2.5 molecules. […] The cluster size affects the osmolality of the solution and larger clusters are reflected in a lower osmolality. The non-ideal behaviour of high concentration solutions permits the addition of physiological electrolytes to achieve isotonicity. […] This non-ideal behaviour persistent also at low concentrations enables the addition of physiological electrolytes to the current formulations.

Data set [2] is described as follows: Aorta contrast to noise ratio (CNR), arterial phase contrast enhanced abdominal CT. The note with it: for FBP [CNR]: 320 mg I/ml, 120 kVp, SoC. Type of data set: in vivo, minipig. The protocol: (§1) Three studies were carried out in two anaesthetized minipigs (abdominal maximum and minimum diameters approximately 36 cm and 20 cm, respectively). Minipigs were imaged on a Discovery CT 750 HD. Compositions of 160 mg I/ml and 200 mg I/ml Ioforminol were prepared. The 160 mg I/ml formulation included a sodium concentration of 82 mM and a calcium concentration of 0.9 mM. The 200 mg I/ml formulation included a sodium concentration of 73 mM and a calcium concentration of 0.8 mM. For human formulations the calcium concentration is likely to be slightly lower, providing an optimized Na/Ca ratio of 110-120. The Ioforminol formulations (2 ml/kg) were injected at a rate of 2 ml/s into a jugular vein, followed by a 20 ml saline flush at the same injection rate.
(§2) For comparison, Ioforminol at a concentration of 320 mg I/ml and 120 kVp tube voltage was administered to represent the current standard of care (SoC) imaging in man. SoC scans were compared to scans performed with either […] or 200 mg I/ml contrast concentration in the same pig, with at least a 2 day washout period between each scanning session. Automated tube current modulation was used with a noise index level of 23 (SoC) and a tube rotation time of 0.7 s. Post-contrast CT images were acquired during the arterial phase, the portal venous phase, the venous phase and the late phase. Image reconstruction was done by (1) FBP, (2) ASiR 60% and (3) Veo. Pixel size was 0.703 mm×0.703 mm×2.5 mm.
(§3) Iodine contrast enhancement was assessed by measuring the mean x-ray attenuation values (in HUs) within circular region of interests (ROIs). ROIs were placed in both aorta and muscle (quadratus lumborum) in arterial phase images and in the liver in venous phase images. See Tables 1-6 and corresponding FIGS. 1-6. The aorta contrast to noise ratio (CNR) was calculated as the difference in signal between the aorta and muscle, divided by the noise in muscle. The liver signal to noise ratio (SNR) was calculated as the ratio of the mean liver attenuation and the standard deviation (SD).

Data set [3] in a line: Liver signal to noise ratio (SNR), venous phase contrast enhanced abdominal CT. It is filed as in vivo, minipig. The note with it: for FBP [SNR]: 320 mg I/ml, 120 kVp, SoC. As to the method:
as §1, §2, §3

Data set [4] in a line: Viscosity of Ioforminol compositions. It is filed as physicochemical. Particulars: 20° C. As to the method: For X-ray diagnostic compositions which are administered by injection or infusion, the desired upper limit for the solution's viscosity at ambient temperature (20° C.) is generally about 30 mPas, however viscosities of up to 50 to 60 mPas and even more than 60 mPas are seen. With the low concentration of iodine in the composition of the invention the viscosity is below 10 mPas at 20° C., and this is even considerably lower at the lower end of the iodine concentration range. […] For comparison a 320 mg I/ml composition of Ioforminol has a viscosity of 28 mPas (at 20° C.). Particularly, for a 160 mg I/ml composition of Ioforminol the viscosity is only 2.9 mPas (at 20° C.), and for a 200 mg I/ml composition the viscosity is 4.7 mPas (20° C.). […] Such low viscosity has the advantage that the composition is easy to administer and the administration can be done more quickly with a higher volume per time unit, particularly as the injection pressure needed is considerably lower than with compositions with higher viscosities. The lower viscosity enables a reduction in the needle- or catheter diameter down to about 63% of the original diameter without effecting flow rate or injection pressure. As a consequence a hand-held syringe can be used rather than an autoinjector.

Where [5] appears, read: 160 mg I/ml, 80 kVp, CTDIvol 5.2 mGy, FIG. 2.
Setting [6] is: 200 mg I/ml, 80 kVp, CTDIvol 6.9 mGy, FIG. 1.
[7] abbreviates: 200 mg I/ml, 100 kVp, CTDIvol 5.2 mGy, FIG. 3.
The mark [8] stands for this setting: 160 mg I/ml, 80 kVp, CTDIvol 5.2 mGy, FIG. 5.
The mark [9] stands for this setting: 200 mg I/ml, 80 kVp, CTDIvol 6.9 mGy, FIG. 4.
Where [10] appears, read: 200 mg I/ml, 100 kVp, CTDIvol 5.2 mGy, FIG. 6.

As to `CC(=O)N(CC(O)CN(C(C)=O)c1c(I)c(C(=O)NCC(O)CO)c(I)c(C(=O)NCC(O)CO)c1I)c1c(I)c(C(=O)NCC(O)CO)c(I)c(C(=O)NCC(O)CO)c1I` (centres unmarked) [Iodixanol, iodixanol, reference compound], the average cluster size in data set [1] (in water at high concentration) is on record as 2.5 molecules per cluster; in data set [1] (low concentrations), “no longer present”.
Consider `O=CN(CC(O)CN(C=O)c1c(I)c(C(=O)NCC(O)CO)c(I)c(C(=O)NCC(O)CO)c1I)c1c(I)c(C(=O)NCC(O)CO)c(I)c(C(=O)NCC(O)CO)c1I` (centres unmarked) [Ioforminol, 5,5′-((2-hydroxypropane-1,3-diyl)bis(formylazanediyl))bis(N1,N3-bis(2,3-dihydroxypropyl)-2,4,6-triiodoisophthalamide)], for which the “ASiR 60% [CNR]” value is recorded as 15.1 in data set [2] (setting [5]), 23 in data set [2] (setting [6]) and 17.7 in data set [2] (setting [7]). Also, the “Veo [CNR]” value in data set [2] (setting [5]) is given as 32.1; in data set [2] (setting [6]), 46.7; in data set [2] (setting [7]), 33.2. Also, the “FBP [CNR]” value in data set [2] (CTDIvol 7.4 mGy, FIG. 2 and 3) is 16.9; in data set [2] (CTDIvol 9.8 mGy, FIG. 1), 17.7. Also, the “ASiR 60% [SNR]” value was 7.7 in data set [3] (setting [8]), 9.5 in data set [3] (setting [9]) and 7.9 in data set [3] (setting [10]). Further, the entries for the “Veo [SNR]” value in data set [3] (setting [8]), in data set [3] (setting [9]) and in data set [3] (setting [10]) were 15.1, 16.7 and 13.1, respectively. Further, the “FBP [SNR]” value in data set [3] (CTDIvol 7.4 mGy, FIG. 5 and 6) was 8.2; in data set [3] (CTDIvol 9.8 mGy, FIG. 4) it was 7.7. Also, the average cluster size in data set [1] (in water at high concentration) is given as 4 molecules per cluster; in data set [1] (low concentrations) it was 2-3 molecules per cluster. Further, the viscosity in data set [4] (160 mg I/ml composition) is listed as 2.9 mPas; in data set [4] (200 mg I/ml composition) it was 4.7 mPas; in data set [4] (320 mg I/ml composition), 28 mPas.
